From US20140350081A1, “INSECT G-COUPLED RECEPTORS USEFUL AS TARGETS FOR INSECTICIDES AND COMPOUNDS AND REAGENTS IDENTIFIED USING THE SAME” (priority 2011, published 2014)
Read-outs that look alike come from different tables or passages of the source.

Assays:
[1] = biological target: T1, Isdop1 (Ixodes scapularis, UniProt A0ACM8FJJ0); assay: cAMP accumulation confirmation assay, cells stably expressing Isdop1; format: cell-based
[2] = biological target: AaDOP1 (Aedes aegypti, UniProt H6D5H1); assay: CRELuc reporter dose-response in HEK293 cells stably expressing AaDOP1; format: cell-based
Sequence of AaDOP1 (H6D5H1 entry or part of it): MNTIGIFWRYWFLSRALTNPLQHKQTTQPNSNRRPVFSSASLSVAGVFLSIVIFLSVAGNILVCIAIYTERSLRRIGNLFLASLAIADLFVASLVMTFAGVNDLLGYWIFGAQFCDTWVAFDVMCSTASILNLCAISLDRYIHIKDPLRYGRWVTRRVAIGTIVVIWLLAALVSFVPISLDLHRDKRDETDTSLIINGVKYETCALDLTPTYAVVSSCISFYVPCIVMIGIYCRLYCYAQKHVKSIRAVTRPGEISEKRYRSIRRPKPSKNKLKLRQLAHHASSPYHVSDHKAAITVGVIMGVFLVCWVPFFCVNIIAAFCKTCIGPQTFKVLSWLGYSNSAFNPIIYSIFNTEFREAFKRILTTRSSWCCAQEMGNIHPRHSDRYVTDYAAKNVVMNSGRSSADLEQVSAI

[3] = biological target: T2, Isdop2 (Ixodes scapularis, UniProt A0ACM8DGL0); assay: cell-based
T2 sequence (A0ACM8DGL0 entry or part of it): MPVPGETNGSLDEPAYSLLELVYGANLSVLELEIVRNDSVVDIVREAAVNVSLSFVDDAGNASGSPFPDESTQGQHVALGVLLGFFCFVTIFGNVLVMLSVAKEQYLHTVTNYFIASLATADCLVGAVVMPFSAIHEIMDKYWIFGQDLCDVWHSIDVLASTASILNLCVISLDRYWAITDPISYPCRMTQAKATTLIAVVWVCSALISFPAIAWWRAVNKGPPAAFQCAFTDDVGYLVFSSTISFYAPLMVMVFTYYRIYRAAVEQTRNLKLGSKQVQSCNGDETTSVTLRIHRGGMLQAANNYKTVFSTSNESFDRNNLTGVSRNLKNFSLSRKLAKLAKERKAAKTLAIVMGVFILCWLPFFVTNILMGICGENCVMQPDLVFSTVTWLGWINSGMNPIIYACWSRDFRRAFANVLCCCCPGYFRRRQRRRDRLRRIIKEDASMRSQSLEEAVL

[4] = biological target: T3, AaDOP2 (Aedes aegypti, UniProt H6D5H2); assay: CRELuc reporter dose-response in HEK293 cells stably expressing AaDOP2; format: cell-based
T3 sequence (H6D5H2 entry or part of it): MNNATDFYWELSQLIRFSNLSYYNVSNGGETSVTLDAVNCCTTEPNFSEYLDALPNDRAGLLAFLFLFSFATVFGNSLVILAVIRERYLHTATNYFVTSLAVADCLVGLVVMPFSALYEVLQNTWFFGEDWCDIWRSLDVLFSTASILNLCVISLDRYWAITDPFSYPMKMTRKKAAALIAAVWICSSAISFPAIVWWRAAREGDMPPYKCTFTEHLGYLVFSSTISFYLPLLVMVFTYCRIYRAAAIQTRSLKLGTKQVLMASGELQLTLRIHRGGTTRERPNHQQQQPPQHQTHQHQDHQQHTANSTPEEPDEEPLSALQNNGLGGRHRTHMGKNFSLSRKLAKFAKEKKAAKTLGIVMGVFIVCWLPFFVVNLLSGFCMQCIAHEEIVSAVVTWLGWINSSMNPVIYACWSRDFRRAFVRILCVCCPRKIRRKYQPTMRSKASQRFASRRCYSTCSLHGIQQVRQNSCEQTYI

[5] = biological target: T3, AaDOP2; assay: LOPAC1280 antagonist screen in HEK-CRELuc-Aadop2 cells; format: cell-based; details: 10 μM compound, 300 nM dopamine, quadruplicate
[6] = tested on: Ae. aegypti L3 larvae; assay: whole plant or invertebrate; details: Aedes aegypti
[7] = biological target: T2, Isdop2; assay: cAMP accumulation in HEK 293 cells transiently expressing Isdop2; format: cell-based
[8] = biological target: T2, Isdop2; assay: cAMP accumulation confirmation assay, cells stably expressing Isdop2; format: cell-based
[9] = biological target: T1, Isdop1; assay: CRE-Luc reporter assay, HEK cells stably expressing Isdop1; format: cell-based
[10] = biological target: T1, Isdop1; assay: cAMP accumulation in HEK 293 cells transiently expressing Isdop1; format: cell-based
[11] = biological target: T2, Isdop2; assay: CRE-Luc reporter assay, HEK cells stably expressing Isdop2; format: cell-based
[12] = biological target: T3, AaDOP2; assay: HTRF cAMP accumulation concentration response assay (Cisbio Dynamic 2); format: cell-based; details: AaDOP2 expressing cells in the presence of dopamine; No Inhibition = <10% inhibition at 3 μM test compound; read-out: IC50 ± S.E.M. (nM), HTRF cAMP assay
[13] = biological target: T3, AaDOP2; assay: cell-based
[14] = biological target: T3, AaDOP2; assay: AaDOP2 agonist screen against the LOPAC1280 library; format: cell-based; details: 10 μM compound; percent of response to 1 μM dihydrexidine
[15] = tested on: Ae. aegypti larvae; assay: whole plant or invertebrate; format: in vivo; details: Aedes aegypti, 24 h, read-out: average larval mortality
Description: Single dose-point and dose response in vivo mosquito bioassays were used to assess the toxicity of selected AaDop2 receptor antagonists identified in the chemical screen. Larvae of Ae. aegypti (Liverpool strain) were reared under standard laboratory conditions on a 12 hr day/night cycle at 75% RH and 28° C., and bioassays were conducted at room temperature (22-24° C.). Larvae were transferred from standard rearing trays into six-well tissue culture plates (Corning, Inc. Corning, N.Y.) using a small plastic pipette. Ten L4-stage larvae were included per well, each containing five ml of de-ionized water and an assigned drug concentration. Controls were conducted similarly but lacked a drug treatment. Bioassays employed a double-blind experimental design, and larval mortality was scored 24 hr following administration of drugs. Single dose-point assays were conducted using 400 μM drug and included three biological replicates each consisting of 100 larvae.

[16] = tested on: adult male Blatella germanica; assay: Cockroach contact assay (topical application); format: in vivo; details: 200 mM compound
Source text: (§1) A series of whole organism bioassays was developed to further evaluate the toxicity of chemistries to a range of agricultural, veterinary and public health pests and non-target insects (Tables 12 and 13). These assays are designed to rapidly explore the biological activity spectrum of chemistries as well as to facilitate initial investigations of the mode of action of insecticidal compounds. Briefly, assays were developed for the German cockroach (Blatella germanica, urban pest), termite (Reticulitermes flavipes; urban pest), lone star tick (Amblyomma americana; veterinary and public health pest), soybean aphid (Aphis glycines, agricultural pest) and honeybee (Apis mellifera; beneficial, non-target insect). The assays were designed to test the toxicity and speed of kill of multiple chemistries on contact. Each of these assays was performed as a single point dose experiment in triplicate using either topical application of compound to the ventral thorax ([…]; 50-80 μg effective dose depending on compound) as is the case for our cockroach and honeybee assays, or 10 second immersion in a solution of the compound diluted in water or DMSO:EtOH to a final concentration of 100 μM. The assays were conducted in 24-well plate format with mortality assessment following incubation at 22° C. as described above. Commercial insecticides were incorporated in these assays to provide a positive control and permit initial comparative analyses. Lead chemistries identified in our in vivo screen have been evaluated in the cockroach and termite assays.

[17] = tested on: adult male Blatella germanica; assay: Cockroach assay of Table 16 (title contact assay, text feeding assay); format: in vivo; details: 200 mM compound
Source text: as §1

[18] = tested on: Ae. aegypti L3 larvae; details: 400 μM, three independent experiments, listed as Cis-flupenthixol
[19] = biological target: T3, AaDOP2; details: read-out: Affinity (Aedesdop2); values equal the Table 3 IC50 values
[20] = tested on: Ae. aegypti L3 larvae; assay: Ae. aegypti L3 concentration response and time course assays; format: in vivo, Aedes aegypti
Description: Briefly, chemistries were diluted to appropriate concentration in water and added to the wells of 24-well plates containing 5 L3 stage Ae. aegypti larvae to achieve a final concentration of 400, 200, 100, 50 and 25 μM in 1 ml sterile RO water. Chemistries were tested in quadruplicate at each concentration. […] Results reported here represent a minimum of three independent CRC experiments (i.e., n=3).

[21] = tested on: adult Reticulitermes flavipes; assay: Termite immersion assay; format: in vivo; details: in vivo
Source text: A series of whole organism bioassays was developed to further evaluate the toxicity of chemistries to a range of agricultural, veterinary and public health pests and non-target insects (Tables 12 and 13). These assays are designed to rapidly explore the biological activity spectrum of chemistries as well as to facilitate initial investigations of the mode of action of insecticidal compounds. Briefly, assays were developed for the German cockroach (Blatella germanica, urban pest), termite (Reticulitermes flavipes; urban pest), lone star tick (Amblyomma americana; veterinary and public health pest), soybean aphid (Aphis glycines, agricultural pest) and honeybee (Apis mellifera; beneficial, non-target insect). The assays were designed to test the toxicity and speed of kill of multiple chemistries on contact. Each of these assays was performed as a single point dose experiment in triplicate using either topical application of compound to the ventral thorax (1 μl of a […] compound solution in 1:1 v:v DMSO:EtOH vehicle; 50-80 μg effective dose depending on compound) as is the case for our cockroach and honeybee assays, or 10 second immersion in a solution of the compound diluted in water or DMSO:[…] The assays were conducted in 24-well plate format with mortality assessment following incubation at 22° C. as described above. Commercial insecticides were incorporated in these assays to provide a positive control and permit initial comparative analyses. Lead chemistries identified in our in vivo screen have been evaluated in the cockroach and termite assays.

[22] = 10 μM antagonist, 1 μM dopamine
[23] = read-out: % Inhibition (of response to dopamine), Isdop2 screen
[24] = 48 h, read-out: Toxicity to Aedes aegypti larvae (mortality) 48 hours, 400 μM, L3 larvae, three independent experiments
[25] = 72 h, read-out: Toxicity to Aedes aegypti larvae (mortality) 72 hours, 400 μM, L3 larvae, three independent experiments
[26] = 10 μM antagonist with 1 μM dopamine
[27] = 10 μM antagonist with 1 μM dopamine, relative to dopamine alone
[28] = 10 μM biogenic amine, 300 nM propranolol, cAMP accumulation, mean±standard error

## CN1CCc2cc(Cl)c(O)cc2C(c2ccccc2)C1 (centres unmarked) [SCH23390, 8-chloro-3-methyl-5-phenyl-1,2,4,5-tetrahydro-3-benzazepin-7-ol]
[1]
  IC50: 57 nM
[2]; [22]
  inhibition of dopamine-mediated stimulation of AaDOP1: robustly inhibited
[3]; [23]
  inhibition at 10 µM: 77%
[3]; read-out: average inhibitory effect of antagonist control across all sixteen plates
  inhibition at 10 µM: 86 ± 6%
[4]; [22]
  inhibition of dopamine-mediated stimulation of AaDOP2: robustly inhibited
[5]
  % of the SCH23390 effect: 83%
[6]; 24 h, read-out: Toxicity to Aedes aegypti larvae (mortality) 24 hours, 400 μM, L3 larvae, three independent experiments
  mortality at 400 µM: 3%
[6]; [24]
  mortality at 400 µM: 23%
[6]; [25]
  mortality at 400 µM: 47%
[7]; [26]
  effect on dopamine-stimulated cAMP, Isdop2: antagonistic effects
[8]
  IC50: 120 nM
[9]; [27]
  inhibition of luciferase activity Isdop1: 74%
[9]; antagonist alone, CRE-Luc
  effect on constitutive activity of Isdop1: inhibition of the constitutive activity of Isdop1 was observed
[10]; [26]
  effect on dopamine-stimulated cAMP, Isdop1: significant reduction in levels of intracellular cAMP
[11]; [27]
  inhibition of luciferase activity Isdop2: 69%
[12]
  IC50: 1300 nM

## Oc1ccc(C=Cc2cc(O)cc(O)c2)cc1 [Resveratrol]
[13]
  IC50: ≥ 10000 nM
[3]; [23]
  inhibition at 10 µM: 100%
[5]
  % of the SCH23390 effect: 89%

## NC[C@H](O)c1ccc(O)c(O)c1 [Norepinephrine]
[2]; HEK293 cells stably expressing CRELuc reporter and AaDOP1
  EC50: 760 ± 180 nM
[4]; HEK 293-CRELuc cells, FIG. 21A
  behaviour at the AaDOP2 receptor in follow up CRCs: partial agonists
[7]; [28]
  Stimulatory response (fold-over-basal) Isdop2: 2.43 ± 0.65 fold-over-basal
[14]
  % of DHX: 86%
[9]
  EC50: 2200 ± 300 nM
[10]; [28]
  Stimulatory response (fold-over-basal) Isdop1: 1.46 ± 0.10 fold-over-basal
[11]
  EC50: 4300 ± 1300 nM

## CN(C)CCC=C1c2ccccc2COc2ccccc21 (mixture of isomers) [Doxepin, ((Z)-3-(dibenzo[b,e]oxepin-11(6H)-ylidene)-N,N-dimethylpropan-1-amine)]
[3]; [23]
  inhibition at 10 µM: 87%
[15]
  mortality at 400 µM: 57%

## OCCN1CCN(CC/C=C2/c3ccccc3Sc3ccc(C(F)(F)F)cc32)CC1 [cis-(Z)-Flupenthixol, ((Z)-2-(4-(3-(2-(trifluoromethyl)-9H-thioxanthen-9-ylidene)propyl)piperazin-1-yl)ethanol)]
[1]
  IC50: 3700 nM
[16]
  % Mortality 24 hrs: 10%
  % Mortality 48 hrs: 10%
  % Mortality 72 hrs: 10%
  % Mortality 120 hrs: 20%
  % Mortality 240 hrs: 20%
[17]
  % Mortality 24 hrs: 3%
  % Mortality 48 hrs: 10%
  % Mortality 72 hrs: 10%
  % Mortality 120 hrs: 20%
[18]
  Toxicity to Aedes aegypti larvae (mortality) 24 hours: 100%
[19]
  IC50: 20 nM
[3]; [23]
  inhibition at 10 µM: 92%
[5]
  % of the SCH23390 effect: 88%
[6]; 0.5 h, read-out: percent mortality 0.5 hr, 400 uM, L3 larvae, value for this scoring time
  mortality at 400 µM: 10%
[6]; 1 h, read-out: percent mortality 1 hr, 400 uM, L3 larvae, per scoring time
  mortality at 400 µM: 30%
[6]; 2 h, read-out: percent mortality 2 hr, 400 uM, L3 larvae, per scoring time
  mortality at 400 µM: 10%
[6]; 3 h, read-out: mortality within three hours, 400 μM, L3 larvae
  mortality at 400 µM: > 70%
[6]; 3 h, read-out: percent mortality 3 hr, 400 uM, L3 larvae, per scoring time
  mortality at 400 µM: 10%
[6]; 4 h, read-out: percent mortality 4 hr, 400 uM, L3 larvae, per scoring time
  mortality at 400 µM: 0%
[6]; 24 h, read-out: percent mortality 24 hr, 400 uM, L3 larvae, per scoring time
  mortality at 400 µM: 0%
[6]; [24]
  mortality at 400 µM: 100%
[6]; 48 h, read-out: percent mortality 48 hr, 400 uM, L3 larvae, per scoring time
  mortality at 400 µM: 0%
[6]; 72 h, read-out: Cumulative % Mortality (72 hrs), 400 uM, L3 larvae
  mortality at 400 µM: 100%
[6]; [25]
  mortality at 400 µM: 100%
[6]; 72 h, read-out: percent mortality 72 hr, 400 uM, L3 larvae, per scoring time
  mortality at 400 µM: 0%
[8]
  IC50: 870 nM
[20]; 400 μM, L3 larval time course assay
  LT50: 54 min
[20]; Aedes aegypti
  LC50: 88000 nM
[21]
  mortality of adult termites: 70-100%
[12]
  IC50: 0.35 ± 0.07 nM
